Assay results from US4426390A, “Novel β-lactam compounds, process for producing thereof, and use thereof as medicines” (Sanraku-Ocean Co., Ltd., priority 1980, dated 1984).
In brackets after ≈: the same amount, converted by molar mass. Read-outs that look alike come from different tables or passages of the source.

Assays:
[1] = tested on: Klebsiella pneumoniae K13; experiment: MIC by agar dilution method; format: cell-based; settings: 37° C., 18 hours
Description: (§1) The MIC is measured by an agar dilution method based on the standard method of the Japanese Society of Chemotherapy (Japanese Society of Chemotherapy: The Revised Method of Determination of MIC Values, Chemotherapy 22, 1126-1128, […]). Specifically, the antibiotic is serially diluted with a 1/50 M phosphate buffer at a pH of 7.3 to prepare a twofold dilution series. One milliliter of each dilution and 9 ml of an agar medium (Heart Infusion Agar; a product of Difco Laboratories) are mixed and allowed to solidify in a Petri dish having a diameter of 9 cm. One loopful of the stock culture of the test microbe is inoculated in trypto-soy buillon (a product of Eiken Kagaku Co., Ltd.) and incubated at 37° C. for 18 hours. The resulting culture broth is diluted to a concentration of about 10^6 cells/ml with physiological saline and inoculated on the agar plate by means of a microplanter.

Ent. sp. E8 = experiment: MIC by agar dilution method; format: cell-based
Description: as §1

Ser. marcesceus T55 = experiment: MIC by agar dilution method; format: cell-based; settings: 37° C., 18 hours
Description: as §1

S. aureus Russell = experiment: MIC by agar dilution method; format: cell-based; settings: Staphylococcus aureus
Description: as §1

Comamonas terrigena B996 = experiment: MIC by agar dilution method; format: cell-based; settings: 37° C., 18 hours
Description: as §1

Alcaligenes Faecolis A1 = experiment: MIC by agar dilution method; format: cell-based
Description: as §1

Proteus mirabilis P6 = experiment: MIC by agar dilution method; format: cell-based
Description: as §1

P. sp. P22 = experiment: MIC by agar dilution method; format: cell-based; settings: 37° C., 18 hours
Description: as §1

Serratia marcesceus S18 = experiment: MIC by agar dilution method; format: cell-based; settings: 37° C., 18 hours
Description: as §1

E. coli RGN823 = experiment: MIC by agar dilution method; format: cell-based; settings: Escherichia coli, 37° C., 18 hours
Description: as §1

[2] = tested on: Bacillus subtillis ATCC 6633; experiment: MIC by agar dilution method; format: cell-based; settings: ATCC6633; Bacillus subtillis ATCC 6633; agar dilution, 37° C., 18 hours; read-out: MIC
Description: as §1

Sarcina lutea S19 = experiment: MIC by agar dilution method; format: cell-based; settings: Micrococcus luteus, 37° C., 18 hours
Description: as §1

Providencia sp. P8 = experiment: MIC by agar dilution method; format: cell-based
Description: as §1

S. epidermidis = experiment: MIC by agar dilution method; format: cell-based; settings: Staphylococcus epidermidis, 37° C., 18 hours
Description: as §1

[3] = tested on: Pseudomonas aenginosa IFO3445; experiment: MIC by agar dilution method; format: cell-based; settings: 37° C., 18 hours
Description: as §1

Ps. aeruginosa NCTC10490 = experiment: MIC by agar dilution method; format: cell-based; settings: Pseudomonas aeruginosa, 37° C., 18 hours
Description: as §1

Escherichia coli K-12 = experiment: MIC by agar dilution method; format: cell-based
Description: as §1

S. aureus Smith = experiment: MIC by agar dilution method; format: cell-based; settings: Staphylococcus aureus, 37° C., 18 hours
Description: as §1

Ent. cloacae 45 = experiment: MIC by agar dilution method; format: cell-based; settings: Enterobacter cloacae, 37° C., 18 hours
Description: as §1

P. vulgaris GN76 = experiment: MIC by agar dilution method; format: cell-based; settings: Proteus vulgaris, 37° C., 18 hours
Description: as §1

[4] = tested on: Enterobacter aerogenes E19; experiment: MIC by agar dilution method; format: cell-based; settings: Klebsiella aerogenes, 37° C., 18 hours
Description: as §1

[5] = tested on: Citrobacter Freundii GN346; experiment: MIC by agar dilution method; format: cell-based; settings: 37° C., 18 hours
Description: as §1

P. rettgeri P7 = experiment: MIC by agar dilution method; format: cell-based; settings: Providencia rettgeri
Description: as §1

[6] = tested on: Staphylococcus aureus 209P; experiment: MIC by agar dilution method; format: cell-based; settings: 37° C., 18 hours
Description: as §1

[7] = Stability (half life) in phosphate buffers of various pH; format: physicochemical; settings: phosphate buffer, pH 4 to 9, 28° C.
Description: By adding 2% sodium hydroxide or 10% hydrochloric acid, the pH of 0.05 M phosphate buffer is adjusted to 4, 5, 6, 7, 8 and 9, respectively, and distributed into test tubes in an amount of 3 ml. Concentrated solution of antibiotic OA-6129A (0.05 ml) is added to each test tube and allowed to stand in a thermostatic chamber of 28° C. The time course curve of the concentration decrease of antibiotic OA-6129A is drawn by spectrophotometric measurement at 300 nm, from which the half life of the antibiotic at the indicated pH is calculated. As a control, antibiotic PS-5, a carbapenem compound described in the above-cited reference is simultaneously tested.

ddY mice = settings: mouse, in vivo, ip, 500 mg/kg
[8] = S. aureus Russell, agar dilution, 37° C., 18 hours, read-out: MIC
[9] = Ent. sp. E8, agar dilution, 37° C., 18 hours, read-out: MIC
[10] = Alcaligenes Faecolis A1, agar dilution, 37° C., 18 hours, read-out: MIC
[11] = Proteus mirabilis P6, agar dilution, 37° C., 18 hours, read-out: MIC
[12] = Providencia sp. P8, agar dilution, 37° C., 18 hours, read-out: MIC
[13] = K12, Escherichia coli K-12, agar dilution, 37° C., 18 hours, read-out: MIC
[14] = P. rettgeri P7, agar dilution, 37° C., 18 hours, read-out: MIC

Row | Structure (SMILES) | MIC [1] [µg/mL] | MIC (Ser. marcesceus T55) [µg/mL] | MIC (S. aureus Russell; [8]) [µg/mL] | MIC (Comamonas terrigena B996) [µg/mL] | MIC (P. sp. P22) [µg/mL] | MIC (Serratia marcesceus S18) [µg/mL] | MIC (E. coli RGN823) [µg/mL] | MIC [2] [µg/mL] | MIC (Sarcina lutea S19) [µg/mL] | MIC (S. epidermidis) [µg/mL] | MIC [3] [µg/mL] | MIC (Ps. aeruginosa NCTC10490) [µg/mL] | MIC (S. aureus Smith) [µg/mL] | MIC (Ent. cloacae 45) [µg/mL] | MIC (P. vulgaris GN76) [µg/mL] | MIC [4] [µg/mL] | MIC [5] [µg/mL] | MIC [6] [µg/mL] | MIC (Ent. sp. E8; [9]) [µg/mL] | MIC (Alcaligenes Faecolis A1; [10]) [µg/mL] | other results
1 | Cc1nnc(SCC2=C(C(=O)O)N3C(=O)[C@@H](NC(=O)Cn4cnnn4)[C@H]3SC2)s1 [CEZ, reference compound] | 25 (≈ 55 µM) | > 400 | 0.2 (≈ 0.44 µM) | 0.05 (≈ 0.11 µM) | > 400 | > 400 | 1.56 (≈ 3.43 µM) | 0.1 (≈ 0.22 µM) | 0.39 (≈ 0.858 µM) | 0.2 (≈ 0.44 µM) | > 400 | > 400 | 0.2 (≈ 0.44 µM) | > 400 | > 400 | > 400 | > 400 | 0.1 (≈ 0.22 µM) | – | – | MIC (Ent. sp. E8; 18 h): 3.13 µg/mL (≈ 6.89 µM); MIC (Alcaligenes Faecolis A1; Alcaligenes, 18 h): 3.13 µg/mL (≈ 6.89 µM); MIC (Proteus mirabilis P6; Proteus mirabilis, P6, 18 h): 3.13 µg/mL (≈ 6.89 µM); MIC (Providencia sp. P8; Providencia, SP.P8, 18 h): 1.56 µg/mL (≈ 3.43 µM); MIC (Escherichia coli K-12; Escherichia coli, K12, 18 h): 0.78 µg/mL (≈ 1.72 µM); MIC (P. rettgeri P7; P7, 18 h): 3.13 µg/mL (≈ 6.89 µM)
2 | CC(O)[C@@H]1C(=O)N2C(C(=O)O)=C(SCCNC(=O)CCNC(=O)C(O)C(C)(C)CO)C[C@H]12 (relative stereo) [OA-6129B1] | > 50 | 12.5 (≈ 26.4 µM) | 0.78 (≈ 1.65 µM) | 0.012 (≈ 0.0253 µM) | > 50 | 6.25 (≈ 13.2 µM) | 0.39 (≈ 0.824 µM) | 0.05 (≈ 0.106 µM) | 0.1 (≈ 0.211 µM) | 0.78 (≈ 1.65 µM) | > 50 | > 50 | 1.56 (≈ 3.29 µM) | 6.25 (≈ 13.2 µM) | 50 (≈ 106 µM) | 3.13 (≈ 6.61 µM) | 6.25 (≈ 13.2 µM) | 0.1 (≈ 0.211 µM) | 0.39 (≈ 0.824 µM) | 0.2 (≈ 0.422 µM) | MIC (Proteus mirabilis P6; [11]): 0.78 µg/mL (≈ 1.65 µM); MIC (Providencia sp. P8; [12]): 0.2 µg/mL (≈ 0.422 µM); MIC (Escherichia coli K-12; [13]): 0.39 µg/mL (≈ 0.824 µM); MIC (P. rettgeri P7; [14]): 0.78 µg/mL (≈ 1.65 µM)
3 | CC(O)C1C(=O)N2C(C(=O)O)=C(SCCNC(=O)CCNC(=O)C(O)C(C)(C)CO)CC12 (stereo not shown) [OA-6129B] | – | – | – | – | – | – | – | – | – | – | – | – | – | – | – | – | – | – | – | – | stability relative to OA-6129A [7]: substantially the same stability as antibiotic OA-6129A; acute toxicity (ddY mice): no acute toxicity is observed
4 | CC(OS(=O)(=O)O)[C@@H]1C(=O)N2C(C(=O)O)=C(SCCNC(=O)CCNC(=O)C(O)C(C)(C)CO)C[C@H]12 (relative stereo) [OA-6129C] | 12.5 (≈ 22.6 µM) | 12.5 (≈ 22.6 µM) | – | 0.1 (≈ 0.181 µM) | 0.78 (≈ 1.41 µM) | 12.5 (≈ 22.6 µM) | 0.39 (≈ 0.704 µM) | 0.1 (≈ 0.181 µM) | 0.78 (≈ 1.41 µM) | 3.13 (≈ 5.65 µM) | 50 (≈ 90.3 µM) | > 50 | 0.78 (≈ 1.41 µM) | 50 (≈ 90.3 µM) | 1.56 (≈ 2.82 µM) | 6.25 (≈ 11.3 µM) | 50 (≈ 90.3 µM) | 0.1 (≈ 0.181 µM) | 1.56 (≈ 2.82 µM) | 0.39 (≈ 0.704 µM) | stability relative to OA-6129A [7]: substantially the same stability as antibiotic OA-6129A; MIC (S. aureus Russell; 18 h): 3.13 µg/mL (≈ 5.65 µM); MIC (Proteus mirabilis P6; [11]): 0.78 µg/mL (≈ 1.41 µM); MIC (Providencia sp. P8; [12]): 0.2 µg/mL (≈ 0.361 µM); MIC (Escherichia coli K-12; [13]): 0.78 µg/mL (≈ 1.41 µM); MIC (P. rettgeri P7; [14]): 0.2 µg/mL (≈ 0.361 µM); acute toxicity (ddY mice): no acute toxicity is observed
